We go through 19 compounds from US9150568B2, “Compositions and methods for modulating FXR” (NOVARTIS AG, priority 2010, dated 2015).

This test concerns the target T1, human Farnesoid X Receptor (FXR) ligand binding domain (GST-FXR LBD) (Homo sapiens, UniProt Q96RI1).
T1 construct: purchased Invitrogen
T1 sequence (Q96RI1 193-472 isoform Q96RI1-2): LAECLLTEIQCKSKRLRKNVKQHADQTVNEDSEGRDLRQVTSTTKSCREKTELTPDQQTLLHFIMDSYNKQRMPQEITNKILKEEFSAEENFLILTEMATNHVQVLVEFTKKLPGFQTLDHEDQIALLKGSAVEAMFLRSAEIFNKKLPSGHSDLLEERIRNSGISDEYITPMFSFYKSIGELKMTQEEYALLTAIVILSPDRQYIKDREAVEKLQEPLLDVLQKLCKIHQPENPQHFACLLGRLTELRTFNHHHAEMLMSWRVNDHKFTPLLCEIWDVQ
Kind of test: Human GST-FXR LBD co-activator interaction assay (HTRF). Type of test: biochemical. To be noted: GST-FXR LBD / biotin-SRC-1 peptide FRET; response relative to GW4064; read-out: FXR Co-activator interaction assay (EC50). The text has this: Human GST-FXR LBD Co-activator interaction Assay. The FXR HTRF assay is a biochemical assay measuring the interaction between FXR and a coactivator protein (SRC1). The ligand-induced interaction with a coactivator protein is a critical step in transcriptional activation by FXR. Thus, this is an assay designed to measure FXR agonist activity of compounds.
The ligand-dependent interaction between GST-FXR LBD and a peptide derived from Steroid Receptor Coactivator-1 (SRC-1) was monitored by Fluorescence Resonance Energy Transfer (FRET). […] Test compounds (in DMSO solution) and detection reagents (anti-GST-Cryptate labeled antibody and Streptavidin-XL665 conjugate; CisBio) were added in assay buffer containing 50 mM KF.
A negative control (without Streptavidin-XL665) was run with each assay and represented the background fluorescence. A reference FXR agonist, GW4064, was included in each experiment as positive control. The efficacy of each test compound was compared to that of GW4064. At each concentration, the relative activity of the test compound was expressed as Response %=(Rsample−RDMSO)/(Rpositive−RDMSO), where Rsample is the HTRF response (expressed in Delta F %) for the test compound, Rpositive is the maximal response for GW4064 at saturating concentrations, and RDMSO is the response for DMSO control. The EC50 values were calculated using GraphPad Prism (GraphPad Software) using non-linear regression curve fit (log(agonist) vs. response—variable slope (four parameters)).
Background: Time-resolved FRET reads energy transfer from a long-lived donor to a nearby acceptor.
As usually defined, the EC50 is the concentration needed to bring the measured effect to its halfway point. On to `O=C(O)c1cnc(N2C3CC[C@H]2C[C@H](OCc2c(C4CCCCC4C(F)(F)F)noc2C2CC2)C3)cn1` (stereo partly shown) [Example 8-5B], for which the concentration giving a half-maximal response (EC50) was determined as 110 nM.

Regarding `Cc1cc(C(=O)O)nc(N2C3CC[C@H]2C[C@H](OCc2c(C4CCCCC4C(F)(F)F)noc2C2CC2)C3)n1` (stereo partly shown) [Example 8-6B], the EC50 came to 100 nM. Consider `Cc1cc(C(=O)O)nc(N2C3CC[C@H]2C[C@H](OCc2c(C4CCCCC4)noc2C2CC2)C3)n1` [Example 8-7B], for which the EC50 was determined as 130 nM. For `O=C(O)c1cc(F)c2nc(N3C4CC[C@H]3C[C@H](OCc3c(C5CCCCC5)noc3C3CC3)C4)sc2c1` [Example 9-1], the EC50 amounted to 5 nM. In the case of `COc1cc(C(=O)O)cc2sc(N3C4CC[C@H]3C[C@H](OCc3c(C5CCCCC5)noc3C3CC3)C4)nc12` [Example 9-2], the 50% effective concentration (EC50) was 11 nM. Next, `O=C(O)c1ccc2nc(N3C4CC[C@H]3C[C@H](OCc3c(C5CC5c5ccccc5)noc3C3CC3)C4)sc2c1` (stereo partly shown) [Example 10B, 2-(3-((5-cyclopropyl-3-(2-phenylcyclopropyl)isoxazol-4-yl)methoxy)-8-azabicyclo[3.2.1]octan-8-yl)benzo[d]thiazole-6-carboxylic acid]: 98 nM; `CC1CC1c1noc(C2CC2)c1CO[C@@H]1CC2CC[C@@H](C1)N2c1nc2c(F)cc(C(=O)O)cc2s1` (stereo partly shown) [Example 12-1]: 25 nM; `O=C(O)c1cc(F)c2nc(N3C4CC[C@H]3C[C@H](OCc3c(C5CC5)noc3C3CC3)C4)sc2c1` [Example 12-2]: 40 nM. With `COc1cc(C(=O)O)cc2sc(N3C4CC[C@H]3C[C@H](OCc3c(C5CC5)noc3C3CC3)C4)nc12` [Example 12-3], the 50% effective concentration (EC50) amounted to 40 nM. Regarding `O=C(O)c1ccc2nc(N3C4CC[C@H]3C[C@H](OCc3c(C5CCC6(CC5)CC6)noc3C3CC3)C4)sc2c1` [Example 13-1B], the EC50 was 1.3 nM. Next, `O=C(O)c1cc(F)c2nc(N3C4CC[C@H]3C[C@H](OCc3c(C5CCC6(CC5)CC6)noc3C3CC3)C4)sc2c1` [Example 13-2B]: 0.53 nM; `COc1cc(C(=O)O)cc2sc(N3C4CC[C@H]3C[C@H](OCc3c(C5CCC6(CC5)CC6)noc3C3CC3)C4)nc12` [Example 13-3B]: 0.67 nM. In the case of `Cc1cc(C(=O)O)nc(N2C3CC[C@H]2C[C@H](OCc2c(C4CCC5(CC4)CC5)noc2C2CC2)C3)n1` [Example 14], the EC50 was determined as 35 nM. On to `O=C(O)CNC(=O)c1ccc2nc(N3C4CC[C@H]3C[C@H](OCc3c(-c5ccccc5OC(F)(F)F)noc3C3CC3)C4)sc2c1` [Example 15-1B, 2-(2-(3-((5-cyclopropyl-3-(2-(trifluoromethoxy)phenyl)isoxazol-4-yl)methoxy)-8-azabicyclo[3.2.1]octan-8-yl)benzo[d]thiazole-6-carboxamido)acetic acid], for which the EC50 came to 0.6 nM.

In the case of `O=C(O)CNC(=O)c1cc(F)c2nc(N3C4CC[C@H]3C[C@H](OCc3c(-c5ccccc5OC(F)(F)F)noc3C3CC3)C4)sc2c1` [Example 15-2], the EC50 was determined as 0.5 nM. For `O=C(O)CNC(=O)c1ccc(N2C3CC[C@H]2C[C@H](OCc2c(-c4ccccc4OC(F)(F)F)noc2C2CC2)C3)nc1` [Example 15-3], the 50% effective concentration (EC50) amounted to 17 nM. In the case of `O=C(O)CNC(=O)c1cc(F)c2nc(N3C4CC[C@H]3C[C@H](OCc3c(-c5ccccc5C(F)(F)F)noc3C3CC3)C4)sc2c1` [Example 15-4], the 50% effective concentration (EC50) is 0.8 nM.

With `O=C(NCCS(=O)(=O)O)c1ccc2nc(N3C4CC[C@H]3C[C@H](OCc3c(-c5ccccc5OC(F)(F)F)noc3C3CC3)C4)sc2c1` [Example 16-1, 2-(2-(3-((5-cyclopropyl-3-(2-(trifluoromethoxy)phenyl)isoxazol-4-yl)methoxy)-8-azabicyclo[3.2.1]octan-8-yl)benzo[d]thiazole-6-carboxamido)ethanesulfonic acid], the EC50 is 0.6 nM. As to `O=C(NCCS(=O)(=O)O)c1cc(F)c2nc(N3C4CC[C@H]3C[C@H](OCc3c(-c5ccccc5OC(F)(F)F)noc3C3CC3)C4)sc2c1` [Example 16-2], the EC50 came out at 0.4 nM.
